Columns and labels:
Assay type in all cases: in vivo
[1] = system: wild-type Arabidopsis thaliana plants; experiment: Herbicide tolerance of Arabidopsis thaliana plants (spray, resistance classes counted)
Description: T1 transformants were initially selected from the background of untransformed seeds using a glufosinate selection scheme. About 40000 T1 seeds were screened, and 380 T1 positive transformants (PAT gene) were identified with a transformation efficiency of about 0.95%. The plants that were transformed with the recombinant expression vector DBN100632 were Arabidopsis thaliana plants having an ALT-1-01 nucleotide sequence located in the cytoplasm introduced (At cytoplasmic ALT-1-01), and the plants that were transformed with the recombinant expression vector DBN100631 were Arabidopsis thaliana plants having an ALT-1-01 nucleotide sequence located in the chloroplast introduced (At chloroplastic ALT-1-01); the plants that were transformed with the recombinant expression vector DBN100634 were Arabidopsis thaliana plants having an ALT-2-01 nucleotide sequence located in the cytoplasm introduced (At cytoplasmic ALT-2-01), and the plants that were transformed with the recombinant expression vector DBN100633 were Arabidopsis thaliana plants having an ALT-2-01 nucleotide sequence located in the chloroplast introduced (At chloroplastic ALT-2-01); and the plants that were transformed with the recombinant expression vector DBN100636 were Arabidopsis thaliana plants having an ALT-3-01 nucleotide sequence located in the cytoplasm introduced (At cytoplasmic ALT-3-01), and the plants that were transformed with the recombinant expression vector DBN100635 were Arabidopsis thaliana plants having an ALT-3-01 nucleotide sequence located in the chloroplast introduced (At chloroplastic ALT-3-01). The herbicide tolerance effects of At cytoplasmic ALT-1-01 T1 plants, At chloroplastic ALT-1-01 T1 plants, At cytoplasmic ALT-2-01 T1 plants, At chloroplastic ALT-2-01 T1 plants, At cytoplasmic ALT-3-01 T1 plants, At chloroplastic ALT-3-01 T1 plants and wild-type Arabidopsis thaliana plants on halosulfuron-methyl were detected (14 days after sowing), respectively.
At cytoplasmic ALT-1-01 T1 plants, At chloroplastic ALT-1-01 T1 plants, At cytoplasmic ALT-2-01 T1 plants, At chloroplastic ALT-2-01 T1 plants, At cytoplasmic ALT-3-01 T1 plants, At chloroplastic ALT-3-01 T1 plants and wild-type Arabidopsis thaliana plants were sprayed with halosulfuron-methyl (34 g ai/ha, 1-fold field concentration) and a blank solvent (water), respectively. Plants were counted for the resistance situations 14 days after spraying: those having a consistent growth status with the blank solvent (water) group after 14 days were classified as highly resistant plants, those having a bolting height less than ½ of that of the blank solvent (water) group after 14 days were classified as moderately resistant plants, those still not capable of bolting after 14 days were classified as poorly resistant plants, and those dead after 14 days were classified as non-resistant plants. Since each Arabidopsis thaliana T1 plant was an independent transformation event, a significant difference in individual T1 responses could be expected at a given dose.
At cytoplasmic ALT-1-01 T1 plants, At chloroplastic ALT-1-01 T1 plants, At cytoplasmic ALT-2-01 T1 plants, At chloroplastic ALT-2-01 T1 plants, At cytoplasmic ALT-3-01 T1 plants, At chloroplastic ALT-3-01 T1 plants and wild-type Arabidopsis thaliana plants in Example 4 were sprayed with iodosulfuron-methyl (10 g ai/ha, 1-fold field concentration), mesosulfuron (14 g ai/ha, 1-fold field concentration) and oxasulfuron (60 g ai/ha, 1-fold field concentration), respectively, in addition to halosulfuron-methyl (34 g ai/ha, 1-fold field concentration) and the blank solvent (water). […]

[2] = system: Gm cytoplasmic ALT-3-01 soybean plants; experiment: Halosulfuron-methyl tolerance of soybean plants (damage degree); details: 34 g ai/ha (1-fold field concentration); for Average damage % 3 DAT: 3 days after spraying; for Average damage % 7 DAT: 7 days after spraying; for Average damage % 14 DAT: 14 days after spraying; for Average damage % 21 DAT: 21 days after spraying
Description: (§1) The herbicide tolerance effects of Gm cytoplasmic ALT-1-01 soybean plants, Gm chloroplastic ALT-1-01 soybean plants, Gm cytoplasmic ALT-2-01 soybean plants, Gm chloroplastic ALT-2-01 soybean plants, Gm cytoplasmic ALT-3-01 soybean plants, Gm chloroplastic ALT-3-01 soybean plants and wild-type soybean plants on halosulfuron-methyl were detected (at seedling stage), respectively.
(§2) Gm cytoplasmic ALT-1-01 soybean plants, Gm chloroplastic ALT-1-01 soybean plants, Gm cytoplasmic ALT-2-01 soybean plants, Gm chloroplastic ALT-2-01 soybean plants, Gm cytoplasmic ALT-3-01 soybean plants, Gm chloroplastic ALT-3-01 soybean plants and wild-type soybean plants were respectively taken and sprayed with halosulfuron-methyl (34 g ai/ha, 1-fold field concentration) and a blank solvent (water). The damage degree caused by the herbicide was measured for each plant according to the leaf curl degree and the growth point damage degree 3 days after spraying (3 DAT), 7 days after spraying (7 DAT), 14 days after spraying (14 DAT) and 21 days after spraying (21 DAT), respectively: considering conditions of leaves being flat as the untreated plants and growth points being intact as having a damage degree of 0%; considering conditions of veins being locally browned, new leaves being malformed and plant growth being slow as having a damage degree of 50%; and considering conditions of veins being purple to whole plant being dead and growth points being browned and dry as having a damage degree of 100%. There were 2 strains in Gm cytoplasmic ALT-1-01 soybean plants in total (S1 and S2), 2 strains in Gm chloroplastic ALT-1-01 soybean plants in total (S3 and S4), 2 strains in Gm cytoplasmic ALT-2-01 soybean plants in total (S5 and S6), 2 strains in Gm chloroplastic ALT-2-01 soybean plants in total (S7 and S8), 2 strains in Gm cytoplasmic ALT-3-01 soybean plants in total (S9 and S10), 2 strains in Gm chloroplastic ALT-3-01 soybean plants in total (S11 and S12), and 1 strain in wild-type soybean plants (CK1) in total; and 10-15 plants were selected from each strain and tested.

[3] = system: Gm cytoplasmic ALT-2-01 soybean plants; experiment: as above; details: 34 g ai/ha (1x Hal.); for Average damage % 3 DAT: 3 days after spraying; for Average damage % 7 DAT: 7 days after spraying; for Average damage % 14 DAT: 14 days after spraying; for Average damage % 21 DAT: 21 days after spraying
Description: as §1, §2

[4] = system: Gm cytoplasmic ALT-1-01 soybean plants; experiment: as above; details: 34 g ai/ha (1x Hal.); for Average damage % 3 DAT: 3 days after spraying; for Average damage % 7 DAT: 7 days after spraying; for Average damage % 14 DAT: 14 days after spraying; for Average damage % 21 DAT: 21 days after spraying
Description: as §1, §2

[5] = 18 g ai/ha (1x Hal.), number of plants 14 days after spraying, Total 32

With `COC(=O)c1c(Cl)nn(C)c1S(=O)(=O)NC(=O)Nc1nc(OC)cc(OC)n1` [halosulfuron-methyl, 3-chlorine-5-(4,6-dimethoxypyrimidine-2-aminocarbonylaminosulphonyl)-1-methylpyrazole-4-carboxylic acid methyl ester] as the molecule, how does the Highly resistant [1, 5] read?
Its Highly resistant is 0.

What about the Moderately resistant [1, 5] of the same molecule?
The Moderately resistant was 0.

What about the Non-resistant [1, 5] of the same molecule?
Its Non-resistant is 32.

And the Poorly resistant [1, 5]?
Its Poorly resistant is 0.

And the “tolerance of the plants to the herbicide” value ([1]; 34 g ai/ha, summary of Table 1 and FIG. 4)?
The value was “none of the wild-type Arabidopsis thaliana plants was tolerant”.

What about the “Average damage % 3 DAT” value ([2]; strain S9) of the same molecule?
Its value is 13%.

And the “Average damage % 7 DAT” value ([2]; strain S9)?
The value was 6%.

What about the “Average damage % 14 DAT” value ([2]; strain S9) of the same molecule?
The value was 0%.

What about the “Average damage % 21 DAT” value ([2]; strain S9) of the same molecule?
Its value is 0%.

And the “Average damage % 3 DAT” value ([2]; strain S10)?
The value was 12%.

And the “Average damage % 7 DAT” value ([2]; strain S10)?
Its value is 5%.

What about the “Average damage % 14 DAT” value ([2]; strain S10) of the same molecule?
Its value is 0%.

And the “Average damage % 21 DAT” value ([2]; strain S10)?
The value was 0%.

And the “Average damage % 3 DAT” value ([3]; strain S5)?
Its value is 14%.

What about the “Average damage % 7 DAT” value ([3]; strain S5) of the same molecule?
Its value is 6%.

What about the “Average damage % 14 DAT” value ([3]; strain S5) of the same molecule?
Its value is 0%.

And the “Average damage % 21 DAT” value ([3]; strain S5)?
The value was 0%.

What about the “Average damage % 3 DAT” value ([3]; strain S6) of the same molecule?
The value was 12%.

What about the “Average damage % 7 DAT” value ([3]; strain S6) of the same molecule?
The value was 6%.

What about the “Average damage % 14 DAT” value ([3]; strain S6) of the same molecule?
The value was 0%.

What about the “Average damage % 21 DAT” value ([3]; strain S6) of the same molecule?
Its value is 0%.

And the “Average damage % 3 DAT” value ([4]; strain S1)?
Its value is 13%.

What about the “Average damage % 7 DAT” value ([4]; strain S1) of the same molecule?
Its value is 7%.

And the “Average damage % 14 DAT” value ([4]; strain S1)?
The value was 0%.

What about the “Average damage % 21 DAT” value ([4]; strain S1) of the same molecule?
Its value is 0%.

And the “Average damage % 3 DAT” value ([4]; strain S2)?
The value was 12%.

What about the “Average damage % 7 DAT” value ([4]; strain S2) of the same molecule?
The value was 6%.

And the “Average damage % 14 DAT” value ([4]; strain S2)?
Its value is 0%.

And the “Average damage % 21 DAT” value ([4]; strain S2)?
The value was 0%.
